Experimental findings from US9340590B2 (priority 2011, dated 2016) are described below.

Positions of bridges follow the written chain, without caps; N, C: chain ends. Non-standard residues stand in square brackets, D forms with d. Residues, ends and D or L forms follow the SMILES beside them. Sar = CNCC(=O)O

As a reminder, the IC50 is the concentration at which inhibition is half-maximal. Read a high IC50 as weaker potency in that assay.

Experiment [1] concerns the target hNav1.5 (Homo sapiens, UniProt Q14524). Nature of the experiment: cell-based.
Experiment [2] addresses hNav1.7 (Homo sapiens, UniProt Q15858). Description: cell-based. As to conditions: Nav1.7 Use IC50.

Chain of hNav1.5 (Q14524 whole entry, looked up): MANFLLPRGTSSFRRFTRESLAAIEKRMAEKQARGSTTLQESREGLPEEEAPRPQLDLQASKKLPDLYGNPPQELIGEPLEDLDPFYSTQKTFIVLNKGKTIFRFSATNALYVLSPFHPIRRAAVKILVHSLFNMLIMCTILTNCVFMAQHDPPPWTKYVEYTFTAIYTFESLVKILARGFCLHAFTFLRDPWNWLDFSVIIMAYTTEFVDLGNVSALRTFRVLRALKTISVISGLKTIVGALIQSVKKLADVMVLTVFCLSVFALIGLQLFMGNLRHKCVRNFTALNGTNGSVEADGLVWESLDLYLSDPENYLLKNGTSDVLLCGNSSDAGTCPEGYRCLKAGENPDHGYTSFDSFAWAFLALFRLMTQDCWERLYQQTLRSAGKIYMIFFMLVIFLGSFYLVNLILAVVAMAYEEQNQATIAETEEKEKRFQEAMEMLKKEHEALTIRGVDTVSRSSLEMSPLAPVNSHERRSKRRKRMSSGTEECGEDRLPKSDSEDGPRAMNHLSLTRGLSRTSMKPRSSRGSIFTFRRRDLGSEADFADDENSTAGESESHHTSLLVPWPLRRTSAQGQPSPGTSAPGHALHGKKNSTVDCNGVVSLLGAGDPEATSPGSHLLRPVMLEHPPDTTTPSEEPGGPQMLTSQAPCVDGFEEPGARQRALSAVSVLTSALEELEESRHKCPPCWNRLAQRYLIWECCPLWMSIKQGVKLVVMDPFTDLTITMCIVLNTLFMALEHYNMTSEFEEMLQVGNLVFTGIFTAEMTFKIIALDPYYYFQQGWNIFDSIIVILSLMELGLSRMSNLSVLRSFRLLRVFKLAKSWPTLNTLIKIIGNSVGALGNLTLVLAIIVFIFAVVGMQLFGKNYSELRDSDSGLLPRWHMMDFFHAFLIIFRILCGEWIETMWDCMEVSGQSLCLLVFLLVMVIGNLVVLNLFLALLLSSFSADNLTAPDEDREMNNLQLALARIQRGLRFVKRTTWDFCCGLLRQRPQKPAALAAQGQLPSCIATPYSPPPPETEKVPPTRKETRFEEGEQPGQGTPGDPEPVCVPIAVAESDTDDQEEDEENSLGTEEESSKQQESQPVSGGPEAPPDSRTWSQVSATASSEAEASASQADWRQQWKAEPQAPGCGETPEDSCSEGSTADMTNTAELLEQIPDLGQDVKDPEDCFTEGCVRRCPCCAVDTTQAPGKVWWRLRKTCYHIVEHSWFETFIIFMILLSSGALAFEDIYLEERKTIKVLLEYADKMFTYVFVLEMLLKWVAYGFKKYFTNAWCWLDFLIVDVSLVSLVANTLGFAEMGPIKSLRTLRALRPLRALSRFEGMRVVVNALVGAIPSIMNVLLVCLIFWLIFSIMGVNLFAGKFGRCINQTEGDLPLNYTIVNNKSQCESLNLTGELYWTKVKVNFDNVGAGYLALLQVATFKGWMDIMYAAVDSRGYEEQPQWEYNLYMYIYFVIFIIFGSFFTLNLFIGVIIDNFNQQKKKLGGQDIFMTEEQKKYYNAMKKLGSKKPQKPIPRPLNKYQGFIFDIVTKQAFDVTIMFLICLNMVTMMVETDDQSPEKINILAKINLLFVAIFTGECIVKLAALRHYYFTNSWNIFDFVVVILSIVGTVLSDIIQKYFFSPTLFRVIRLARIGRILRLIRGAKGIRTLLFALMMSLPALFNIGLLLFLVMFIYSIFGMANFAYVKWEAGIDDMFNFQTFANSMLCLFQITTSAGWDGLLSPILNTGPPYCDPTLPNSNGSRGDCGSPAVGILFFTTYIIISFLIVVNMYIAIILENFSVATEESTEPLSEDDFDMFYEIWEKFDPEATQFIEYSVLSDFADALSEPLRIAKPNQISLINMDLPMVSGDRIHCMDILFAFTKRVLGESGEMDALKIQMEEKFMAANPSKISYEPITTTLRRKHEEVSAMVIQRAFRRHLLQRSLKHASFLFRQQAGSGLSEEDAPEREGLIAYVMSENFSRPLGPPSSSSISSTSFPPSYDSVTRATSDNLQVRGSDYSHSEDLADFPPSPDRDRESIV
Chain of hNav1.7 (Q15858 whole entry, looked up): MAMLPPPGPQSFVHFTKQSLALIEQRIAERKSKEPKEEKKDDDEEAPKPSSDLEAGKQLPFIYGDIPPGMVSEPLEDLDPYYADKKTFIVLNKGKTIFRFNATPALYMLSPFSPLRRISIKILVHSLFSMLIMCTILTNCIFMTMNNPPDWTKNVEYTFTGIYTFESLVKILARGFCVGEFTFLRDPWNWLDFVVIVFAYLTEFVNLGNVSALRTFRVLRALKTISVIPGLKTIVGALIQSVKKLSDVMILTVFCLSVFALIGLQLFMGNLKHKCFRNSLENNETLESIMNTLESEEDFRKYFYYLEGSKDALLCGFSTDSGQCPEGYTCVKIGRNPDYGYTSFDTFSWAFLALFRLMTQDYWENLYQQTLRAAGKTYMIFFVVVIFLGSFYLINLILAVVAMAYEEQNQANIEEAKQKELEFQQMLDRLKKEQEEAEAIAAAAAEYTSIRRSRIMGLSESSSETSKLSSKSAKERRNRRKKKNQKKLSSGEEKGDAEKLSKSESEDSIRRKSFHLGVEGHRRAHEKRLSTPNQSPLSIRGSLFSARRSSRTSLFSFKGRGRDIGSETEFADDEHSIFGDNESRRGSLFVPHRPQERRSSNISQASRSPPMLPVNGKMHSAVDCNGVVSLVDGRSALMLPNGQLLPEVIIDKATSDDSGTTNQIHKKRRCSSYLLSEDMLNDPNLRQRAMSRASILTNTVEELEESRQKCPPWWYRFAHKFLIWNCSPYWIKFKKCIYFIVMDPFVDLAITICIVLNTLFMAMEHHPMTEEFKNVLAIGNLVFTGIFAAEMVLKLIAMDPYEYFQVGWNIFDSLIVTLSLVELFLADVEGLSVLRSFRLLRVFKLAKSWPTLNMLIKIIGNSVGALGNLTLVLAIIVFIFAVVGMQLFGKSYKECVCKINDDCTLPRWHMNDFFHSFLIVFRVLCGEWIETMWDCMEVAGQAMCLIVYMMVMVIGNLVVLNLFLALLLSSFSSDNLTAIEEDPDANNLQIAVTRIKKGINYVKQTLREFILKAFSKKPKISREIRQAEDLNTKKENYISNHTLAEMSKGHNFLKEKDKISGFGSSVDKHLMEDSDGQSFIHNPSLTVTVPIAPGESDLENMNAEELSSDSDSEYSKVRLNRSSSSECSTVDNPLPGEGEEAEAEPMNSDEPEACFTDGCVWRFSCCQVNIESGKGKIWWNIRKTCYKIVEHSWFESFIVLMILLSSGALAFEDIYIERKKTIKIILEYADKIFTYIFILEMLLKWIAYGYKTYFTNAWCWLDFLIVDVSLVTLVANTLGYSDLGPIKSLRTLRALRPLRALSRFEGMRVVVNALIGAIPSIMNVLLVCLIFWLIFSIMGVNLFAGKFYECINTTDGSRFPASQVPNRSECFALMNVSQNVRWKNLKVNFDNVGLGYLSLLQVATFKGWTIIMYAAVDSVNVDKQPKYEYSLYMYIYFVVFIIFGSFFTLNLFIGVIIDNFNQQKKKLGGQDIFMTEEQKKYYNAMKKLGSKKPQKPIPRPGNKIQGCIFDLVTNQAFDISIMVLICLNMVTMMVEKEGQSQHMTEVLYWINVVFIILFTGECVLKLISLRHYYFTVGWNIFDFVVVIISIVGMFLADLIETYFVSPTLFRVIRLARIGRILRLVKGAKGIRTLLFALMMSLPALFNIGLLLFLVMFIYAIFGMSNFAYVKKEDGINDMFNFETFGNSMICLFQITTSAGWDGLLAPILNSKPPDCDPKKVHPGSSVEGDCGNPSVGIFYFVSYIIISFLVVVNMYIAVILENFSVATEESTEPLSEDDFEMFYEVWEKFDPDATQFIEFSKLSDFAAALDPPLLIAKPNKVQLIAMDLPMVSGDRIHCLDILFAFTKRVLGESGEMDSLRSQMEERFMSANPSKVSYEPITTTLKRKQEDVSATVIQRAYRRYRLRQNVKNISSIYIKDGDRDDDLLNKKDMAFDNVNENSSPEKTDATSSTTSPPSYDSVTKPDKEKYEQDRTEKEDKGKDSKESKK

In the case of `CC[C@H](C)[C@@H]1NC(=O)[C@@H]2CSSC[C@@H]3NC(=O)[C@H](C(C)C)NC(=O)[C@H](CC(C)C)NC(=O)[C@H](CC(N)=O)NC(=O)[C@@H]4CCCN4C(=O)[C@H](CCCNC(=N)N)NC(=O)[C@H](CSSC[C@H](NC(=O)[C@@H](N)CC(=O)O)C(=O)N[C@@H](CC(C)C)C(=O)NCC(=O)N(C)[C@@H](Cc4ccccc4)C(=O)N[C@@H](CC(C)C)C(=O)N[C@@H](CCCNC(=N)N)C(=O)N[C@@H](CCCCN)C(=O)N2)NC(=O)[C@H](CSSC[C@@H](C(=O)N[C@@H](CCCCN)C(=O)N[C@@H](Cc2ccc(O)cc2)C(=O)N[C@H](C(=O)N[C@@H](Cc2ccccc2)C(N)=O)C(C)C)NC(=O)[C@H](Cc2c[nH]c4ccccc24)NC(=O)[C@H](CCCCN)NC(=O)[C@H](Cc2c[nH]cn2)NC(=O)[C@H]([C@@H](C)O)NC(=O)[C@H](CCCNC(=N)N)NC(=O)[C@H](CO)NC3=O)NC(=O)[C@H](CCCCN)NC(=O)[C@H](CC(=O)O)NC(=O)[C@H](CC(N)=O)NC(=O)[C@H](CC(=O)O)NC(=O)[C@@H]2CCCN2C1=O` [[NMePhe5;Leu6]GpTx-1(1-34)], the IC50 in experiment [1] was 11300 nM; in experiment [2], 12 nM.
On the same counts, the results for `CC[C@H](C)[C@@H]1NC(=O)[C@@H]2CSSC[C@@H]3NC(=O)[C@H](C(C)C)NC(=O)[C@H](CC(C)C)NC(=O)[C@H](CC(N)=O)NC(=O)[C@@H]4CCCN4C(=O)[C@H](CCCNC(N)=O)NC(=O)[C@H](CSSC[C@H](NC(=O)[C@@H](N)CC(=O)O)C(=O)N[C@@H](CC(C)C)C(=O)NCC(=O)N[C@@H](Cc4ccccc4)C(=O)N[C@@H](CCSC)C(=O)N[C@@H](CCCNC(=N)N)C(=O)N[C@@H](CCCCN)C(=O)N2)NC(=O)[C@H](CSSC[C@@H](C(=O)N[C@@H](CCCCN)C(=O)N[C@@H](Cc2ccc(O)cc2)C(=O)N[C@H](C(=O)N[C@@H](Cc2ccccc2)C(N)=O)C(C)C)NC(=O)[C@H](Cc2c[nH]c4ccccc24)NC(=O)[C@H](CCCCN)NC(=O)[C@H](Cc2cnc[nH]2)NC(=O)[C@H]([C@@H](C)O)NC(=O)[C@H](CCCNC(=N)N)NC(=O)[C@H](CO)NC3=O)NC(=O)[C@H](CCCCN)NC(=O)[C@H](CC(=O)O)NC(=O)[C@H](CC(N)=O)NC(=O)[C@H](CC(=O)O)NC(=O)[C@@H]2CCCN2C1=O` [[Cit18]GpTx-1(1-34)] are 10000 nM and 2 nM.
On to `CC(C)C[C@@H]1NC(=O)[C@@H](NC(=O)[C@@H](N)CC(=O)O)CSSC[C@@H]2NC(=O)[C@@H]3CSSC[C@@H](C(=O)N[C@@H](CCCCN)C(=O)N[C@@H](Cc4ccc(O)cc4)C(=O)N[C@H](C(=O)N[C@@H](Cc4ccccc4)C(N)=O)C(C)C)NC(=O)[C@H](Cc4c[nH]c5ccccc45)NC(=O)[C@H](CCCCN)NC(=O)[C@H](Cc4c[nH]cn4)NC(=O)[C@H]([C@@H](C)O)NC(=O)[C@H](CCCNC(=N)N)NC(=O)[C@H](CO)NC(=O)[C@H](CSSC[C@H](NC(=O)[C@H](CCCCN)NC(=O)[C@H](CCCNC(=N)N)NC(=O)[C@H](Cc4ccccc4)NC(=O)[C@H](C)NC(=O)CNC1=O)C(=O)N[C@@H](CC(=O)O)C(=O)N1CCC[C@H]1C(=O)N[C@@H](CC(=O)O)C(=O)N[C@@H](CC(N)=O)C(=O)N[C@@H](CC(=O)O)C(=O)N[C@@H](CCCCN)C(=O)N3)NC(=O)[C@H](C(C)C)NC(=O)[C@H](CC(C)C)NC(=O)[C@H](CC(N)=O)NC(=O)[C@@H]1CCCN1C(=O)[C@H](CCCNC(=N)N)NC2=O` [[Ala5;Phe6;Asp10]GpTx-1(1-34)] (H-DCLGAFRKCDPDNDKCCRPNLVCSRTHKWCKYVF-NH2; disulfide 2-17, 9-23, 16-30), for which the results for the IC50 in experiment [1] and in experiment [2] were greater than 10000 nM and 40 nM, respectively.
On the same counts, the results for `CC[C@H](C)[C@@H]1NC(=O)[C@@H]2CSSC[C@@H]3NC(=O)[C@H](C(C)C)NC(=O)[C@H](CC(C)C)NC(=O)[C@H](CC(N)=O)NC(=O)[C@@H]4CCCN4C(=O)[C@H](CCCNC(=N)N)NC(=O)[C@H](CSSC[C@H](NC(=O)[C@@H](N)CC(=O)O)C(=O)N[C@@H](CC(C)C)C(=O)NCC(=O)N(C)[C@@H](Cc4ccccc4)C(=O)N[C@@H](CCSC)C(=O)N[C@@H](CCCNC(=N)N)C(=O)N[C@@H](CCCCN)C(=O)N2)NC(=O)[C@H](CSSC[C@@H](C(=O)N[C@@H](CCCCN)C(=O)N[C@@H](Cc2ccc(O)cc2)C(=O)N[C@H](C(=O)N[C@@H](Cc2ccccc2)C(N)=O)C(C)C)NC(=O)[C@H](Cc2c[nH]c4ccccc24)NC(=O)[C@H](CCCCN)NC(=O)[C@H](Cc2c[nH]cn2)NC(=O)[C@H]([C@@H](C)O)NC(=O)[C@H](CCCNC(=N)N)NC(=O)[C@H](CO)NC3=O)NC(=O)[C@H](CCCCN)NC(=O)[C@H](CC(=O)O)NC(=O)[C@H](CC(N)=O)NC(=O)[C@H](CC(=O)O)NC(=O)[C@@H]2CCCN2C1=O` [[NMePhe5]GpTx-1(1-34)] are greater than 10000 nM and 18 nM.
For the compound `CSCC[C@@H]1NC(=O)[C@H](C(C)C)NC(=O)CNC(=O)[C@H](CC(C)C)NC(=O)[C@@H](NC(=O)[C@@H](N)CC(=O)O)CSSC[C@@H]2NC(=O)[C@@H]3CSSC[C@@H](C(=O)N[C@@H](CCCCN)C(=O)N[C@@H](Cc4ccc(O)cc4)C(=O)N[C@H](C(=O)N[C@@H](Cc4ccccc4)C(N)=O)C(C)C)NC(=O)[C@H](Cc4c[nH]c5ccccc45)NC(=O)[C@H](CCCCN)NC(=O)[C@H](Cc4c[nH]cn4)NC(=O)[C@H]([C@@H](C)O)NC(=O)[C@H](CCCNC(=N)N)NC(=O)[C@H](CO)NC(=O)[C@H](CSSC[C@H](NC(=O)[C@H](CCCCN)NC(=O)[C@H](CCCNC(=N)N)NC1=O)C(=O)N[C@@H](CC(=O)O)C(=O)N1CCC[C@H]1C(=O)N[C@@H](CCC(=O)O)C(=O)N[C@@H](CC(N)=O)C(=O)N[C@@H](CC(=O)O)C(=O)N[C@@H](CCCCN)C(=O)N3)NC(=O)[C@H](C(C)C)NC(=O)[C@H](CC(C)C)NC(=O)[C@H](CC(N)=O)NC(=O)[C@@H]1CCCN1C(=O)[C@H](CCCNC(=N)N)NC2=O` [[Val5;Asp10;Glu12]GpTx-1(1-34)] (H-DCLGVMRKCDPENDKCCRPNLVCSRTHKWCKYVF-NH2; disulfide 2-17, 9-23, 16-30), the IC50 was greater than 10000 nM in experiment [1] and 116 nM in experiment [2].
For `CC[C@H](C)[C@@H]1NC(=O)[C@@H]2CSSC[C@@H]3NC(=O)[C@H](C(C)C)NC(=O)[C@H](CC(C)C)NC(=O)[C@H](CC(N)=O)NC(=O)[C@@H]4CCCN4C(=O)[C@H](CCCNC(=N)N)NC(=O)[C@H](CSSC[C@H](NC(=O)[C@@H](N)CC(=O)O)C(=O)N[C@@H](CC(C)C)C(=O)NCC(=O)N[C@@H](C)C(=O)N[C@@H](CCSC)C(=O)N[C@@H](CCCNC(=N)N)C(=O)N[C@@H](CCCCN)C(=O)N2)NC(=O)[C@H](CSSC[C@@H](C(=O)N[C@@H](CCCCN)C(=O)N[C@@H](Cc2ccc(O)cc2)C(=O)N[C@H](C(=O)N[C@@H](Cc2ccccc2)C(N)=O)C(C)C)NC(=O)[C@H](Cc2c[nH]c4ccccc24)NC(=O)[C@H](CO)NC(=O)[C@H](Cc2c[nH]cn2)NC(=O)[C@H]([C@@H](C)O)NC(=O)[C@H](CCCNC(=N)N)NC(=O)[C@H](CO)NC3=O)NC(=O)[C@H](CCCCN)NC(=O)[C@H](CC(=O)O)NC(=O)[C@H](CC(N)=O)NC(=O)[C@H](CC(=O)O)NC(=O)[C@@H]2CCCN2C1=O` [[Ala5;Ser28]GpTx-1(1-34)] (H-DCLGAMRKCIPDNDKCCRPNLVCSRTHSWCKYVF-NH2; disulfide 2-17, 9-23, 16-30), the IC50 in experiment [1] is greater than 10000 nM; in experiment [2], 45 nM.
As for `CC[C@H](C)[C@@H]1NC(=O)[C@@H]2CSSC[C@@H]3NC(=O)[C@H](C(C)C)NC(=O)[C@H](CC(C)C)NC(=O)[C@H](CC(N)=O)NC(=O)[C@@H]4CCCN4C(=O)[C@H](CCCNC(=N)N)NC(=O)[C@H](CSSC[C@H](NC(=O)[C@@H](N)CC(=O)O)C(=O)N[C@@H](CC(C)C)C(=O)NCC(=O)NC(C)(C)C(=O)N[C@@H](CC(C)C)C(=O)N[C@@H](CCCNC(=N)N)C(=O)N[C@@H](CCCCN)C(=O)N2)NC(=O)[C@H](CSSC[C@@H](C(=O)N[C@@H](CCCCN)C(=O)N[C@@H](Cc2ccc(O)cc2)C(=O)N[C@H](C(=O)N[C@@H](Cc2ccccc2)C(N)=O)C(C)C)NC(=O)[C@H](Cc2c[nH]c4ccccc24)NC(=O)[C@H](CCCCN)NC(=O)[C@H](Cc2c[nH]cn2)NC(=O)[C@H]([C@@H](C)O)NC(=O)[C@H](CCCNC(=N)N)NC(=O)[C@H](CO)NC3=O)NC(=O)[C@H](CCCCN)NC(=O)[C@H](CC(=O)O)NC(=O)[C@H](CC(N)=O)NC(=O)[C@H](CC(=O)O)NC(=O)[C@@H]2CCCN2C1=O` [[Aib5;Leu6]GpTx-1(1-34)], the figures for the IC50 in experiment [1] and in experiment [2] were greater than 10000 nM and 20 nM, respectively.
For `CC[C@H](C)[C@@H]1NC(=O)[C@@H]2CSSC[C@@H]3NC(=O)[C@H](C(C)C)NC(=O)[C@H](CC(C)C)NC(=O)[C@H](CC(N)=O)NC(=O)[C@@H]4CCCN4C(=O)[C@H](CCCNC(=N)N)NC(=O)[C@H](CSSC[C@H](NC(=O)[C@@H](N)CC(=O)O)C(=O)N[C@@H](CC(C)C)C(=O)NCC(=O)N(C)CC(=O)N[C@@H](Cc4ccccc4)C(=O)N[C@@H](CCCNC(=N)N)C(=O)N[C@@H](CCCCN)C(=O)N2)NC(=O)[C@H](CSSC[C@@H](C(=O)N[C@@H](CCCCN)C(=O)N[C@@H](Cc2ccc(O)cc2)C(=O)N[C@H](C(=O)N[C@@H](Cc2ccccc2)C(N)=O)C(C)C)NC(=O)[C@H](Cc2c[nH]c4ccccc24)NC(=O)[C@H](CCCCN)NC(=O)[C@H](Cc2c[nH]cn2)NC(=O)[C@H]([C@@H](C)O)NC(=O)[C@H](CCCNC(=N)N)NC(=O)[C@H](CO)NC3=O)NC(=O)[C@H](CCCCN)NC(=O)[C@H](CC(=O)O)NC(=O)[C@H](CC(N)=O)NC(=O)[C@H](CC(=O)O)NC(=O)[C@@H]2CCCN2C1=O` [[Sar5;Phe6]GpTx-1(1-34)] (H-DCLG[Sar]FRKCIPDNDKCCRPNLVCSRTHKWCKYVF-NH2; disulfide 2-17, 9-23, 16-30), the concentration for half-maximal inhibition (IC50) in experiment [1] was greater than 10000 nM; in experiment [2] it was 25 nM.
